From ChEMBL document CHEMBL3352098, “A class of 4-sulfamoylphenyl-ω-aminoalkyl ethers with effective carbonic anhydrase inhibitory action and antiglaucoma effects” (J Med Chem, 2014) come the findings set out here.

For assay [1], the target named is Carbonic anhydrase 9 (Homo sapiens, UniProt Q16790). The assay is described as follows: Inhibition of human CA-9 by stopped flow CO2 hydrase assay.
Assay [2] relates to Oryctolagus cuniculus. The assay is described as follows: Antiglaucoma activity in New Zealand albino rabbit assessed as reduction in hypertonic saline-induced intraocular pressure at 2% solution administered topically measured after 2 hrs. The format is functional, organism-based. The note with it: Eye.

The source made the active and inactive calls. The rule behind the calls is not given here.

The compound `NCCCOc1ccc(S(N)(=O)=O)cc1` had an inhibitory constant (Ki) in assay [1] of 17.9 nM.
Consider `CC(C)(C)OC(=O)NCCOc1ccc(S(N)(=O)=O)cc1`, for which, in assay [1], the inhibition constant (Ki) turned out to be 8.3 nM.
Compound `NS(=O)(=O)c1ccc(OCCNC(=S)Nc2ccc(-c3c4ccc(=O)cc-4oc4cc(O)ccc34)c(C(=O)O)c2)cc1` returned a Ki in assay [1] of 8.5 nM. This Ki and that of the compound before are within 1.5-fold of each other.
Consider `CC(C)(C)OC(=O)NCCCOc1ccc(S(N)(=O)=O)cc1`, for which, in assay [1], the inhibition constant (Ki) turned out to be 5.8 nM.
Take `NCCCCOc1ccc(S(N)(=O)=O)cc1`: in assay [1], the Ki was 32.6 nM. The result in assay [2] was Active.
With `NS(=O)(=O)c1ccc(OCCCCNC(=S)Nc2ccc(-c3c4ccc(=O)cc-4oc4cc(O)ccc34)c(C(=O)O)c2)cc1`, in assay [1], the Ki is 8.8 nM.
Turning to `CC(C)(C)OC(=O)NCCCCCOc1ccc(S(N)(=O)=O)cc1`, in assay [1], the affinity corresponds to a Ki of 7.1 nM.
Regarding `NCCCCCOc1ccc(S(N)(=O)=O)cc1`, in assay [1], the inhibition constant Ki worked out at 6.6 nM.
The compound `CC(C)(C)OC(=O)NCCCCCCOc1ccc(S(N)(=O)=O)cc1` yielded a Ki in assay [1] of 6.9 nM.
`CN(C)c1ccc2c(-c3ccc(NC(=S)NCCOc4ccc(S(N)(=O)=O)cc4)cc3C(=O)O)c3ccc(=[N+](C)C)cc-3oc2c1` had an inhibitory constant (Ki) in assay [1] of 9.6 nM.
`NCCOc1ccc(S(N)(=O)=O)cc1` displayed a Ki in assay [1] of 8.7 nM.
In the case of `CC(C)(C)OC(=O)NCCCCOc1ccc(S(N)(=O)=O)cc1`, the result in assay [2] was Active.
As to `NS(=O)(=O)c1ccc(OCCCNC(=S)Nc2ccc(-c3c4ccc(=O)cc-4oc4cc(O)ccc34)c(C(=O)O)c2)cc1`, in assay [1], affinity was put at a Ki of 7.2 nM.
In assay [1], `CN(C)c1ccc2c(-c3ccc(NC(=S)NCCCOc4ccc(S(N)(=O)=O)cc4)cc3C(=O)O)c3ccc(=[N+](C)C)cc-3oc2c1` displayed an inhibition constant (Ki) of 7.9 nM.
The compound `NCCCCCCOc1ccc(S(N)(=O)=O)cc1` showed an inhibitory constant (Ki) in assay [1] of 6.5 nM.

A word on the Ki: it is a measure of affinity in units of concentration, obtained from inhibition or displacement. Read a low Ki as a stronger hold on the target.
